Drawing on patent US20180184654A1, “Pesticidal Compositions Comprising a Triazole Compound” (BASF Agro B.V., priority 2015, published 2018), this text covers Observed efficacy for four molecules.

The subject of one test is Septoria tritici. The test is described as follows: Microtest: activity against leaf blotch on wheat caused by Septoria tritici (Septtr). Format: cell-based. To be noted: MTP, 405 nm, 7 days after inoculation. The procedure: (§1) The active compounds were formulated separately as a stock solution having a concentration of 10000 ppm in dimethyl sulfoxide.
The stock solutions were mixed according to the ratio, pipetted onto a micro titer plate (MTP) and diluted with water to the stated concentrations. A spore suspension of Septoria tritici in an aqueous biomalt or yeast-bactopeptone-glycerine solution was then added. The plates were placed in a water vapor-saturated chamber at a temperature of 18° C. Using an absorption photometer, the MTPs were measured at 405 nm 7 days after the inoculation.
(§2) The measured parameters were compared to the growth of the active compound-free control variant (100%) and the fungus-free and active compound-free blank value to determine the relative growth in % of the pathogens in the respective active compounds.
(§3) These percentages were converted into efficacies.
(§4) The expected efficacies of active compound mixtures were determined using Colby's formula [R. S. Colby, “Calculating synergistic and antagonistic responses of herbicide combinations”, Weeds 15, 20-22 (1967)] and compared with the observed efficacies.

The test system of the next test is Leptosphaeria nodorum. The test is described as follows: Microtest: activity against wheat leaf spots caused by Leptosphaeria nodorum (Leptno). It is filed as cell-based. To be noted: MTP, 405 nm, 7 days after inoculation. On the procedure:
as §1
The stock solutions were mixed according to the ratio, pipetted onto a micro titer plate (MTP) and diluted with water to the stated concentrations. A spore suspension of Leptosphaeria nodorum in an aqueous biomalt or yeast-bactopeptone-glycerine solution was then added. The plates were placed in a water vapor-saturated chamber at a temperature of 18° C. Using an absorption photometer, the MTPs were measured at 405 nm 7 days after the inoculation.
as §2, §3, §4

For `CCN(C(=O)c1cnn(C(C)C(C)F)c1C)c1ccnnc1` (stereo not shown) [II-5, N-ethyl-1-(2-fluoro-1-methyl-propyl)-5-methyl-N-pyridazin-4-yl-pyrazole-4-carboxamide], the Observed efficacy with Septoria tritici (single compound at 16 ppm) was found to be 9%; with Leptosphaeria nodorum (single compound at 63 ppm), 12%.

Regarding `CC(O)(Cn1cncn1)c1ccc(Oc2ccc(Cl)cc2)cc1C(F)(F)F` (stereo not shown) [I-3, 2-[4-(4-chlorophenoxy)-2-(trifluoromethyl)phenyl]-1-(1,2,4-triazol-1-yl)propan-2-ol], the results for the Observed efficacy in the test with Septoria tritici (single compound at 0.001 ppm) and in the test with Leptosphaeria nodorum (single compound at 0.016 ppm) were 6% and 23%, respectively.

In the case of `CCN(C(=O)c1cnn(C(C)C2(C#N)CC2)c1C)c1ccnnc1` (stereo not shown) [II-4, 1-[1-(1-cyanocyclopropyl)ethyl]-N-ethyl-5-methyl-N-pyridazin-4-yl-pyrazole-4-carboxamide], the Observed efficacy with Leptosphaeria nodorum (single compound at 63 ppm) came to 2%.

Regarding `CCN(C(=O)c1cnn(C(C)C(C)C)c1C)c1ccnnc1` (stereo not shown) [II-2, 1-(1,2-dimethylpropyl)-N-ethyl-5-methyl-N-pyridazin-4-yl-pyrazole-4-carboxamide], the Observed efficacy in the test on Septoria tritici (single compound at 4 ppm) and in the test with Leptosphaeria nodorum (single compound at 63 ppm) was 7% in each case.
